Test results reported in patent US20230295197A1, “STAT5 and STAT6 Degraders and Uses Thereof” (REGENTS OF THE UNIVERSITY OF MICHICAN, priority 2022, published 2023).
Where two headings read alike, the source gives them in different places.

Legend:
[1] = system: STAT5; assay: Immunoblotting (Western blot) analysis of STAT5 degradation efficiency of degraders in treated cells; type: cell-based
Outline: (§1)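 Protein levels of STAT5 and STAT6 were assessed in cells cultured at 37 °C in 10% FBS medium after compound exposure, by quantitative fluorescent Western blotting normalised to equal loading and referenced to GAPDH.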

[2] = molecular target: T1, STAT6 (Homo sapiens, UniProt P42226); assay: Immunoblotting (Western blot) analysis of STAT6 degradation efficiency of degraders in treated cells; type: cell-based; conditions: MOLM-16 cells, read-out: DC50 S6 MOLM-16
T1 construct: endogenous in cells; host or cells: MOLM-16, KU-812, SKNO1, MB231, L1236
T1 sequence (P42226 1-847): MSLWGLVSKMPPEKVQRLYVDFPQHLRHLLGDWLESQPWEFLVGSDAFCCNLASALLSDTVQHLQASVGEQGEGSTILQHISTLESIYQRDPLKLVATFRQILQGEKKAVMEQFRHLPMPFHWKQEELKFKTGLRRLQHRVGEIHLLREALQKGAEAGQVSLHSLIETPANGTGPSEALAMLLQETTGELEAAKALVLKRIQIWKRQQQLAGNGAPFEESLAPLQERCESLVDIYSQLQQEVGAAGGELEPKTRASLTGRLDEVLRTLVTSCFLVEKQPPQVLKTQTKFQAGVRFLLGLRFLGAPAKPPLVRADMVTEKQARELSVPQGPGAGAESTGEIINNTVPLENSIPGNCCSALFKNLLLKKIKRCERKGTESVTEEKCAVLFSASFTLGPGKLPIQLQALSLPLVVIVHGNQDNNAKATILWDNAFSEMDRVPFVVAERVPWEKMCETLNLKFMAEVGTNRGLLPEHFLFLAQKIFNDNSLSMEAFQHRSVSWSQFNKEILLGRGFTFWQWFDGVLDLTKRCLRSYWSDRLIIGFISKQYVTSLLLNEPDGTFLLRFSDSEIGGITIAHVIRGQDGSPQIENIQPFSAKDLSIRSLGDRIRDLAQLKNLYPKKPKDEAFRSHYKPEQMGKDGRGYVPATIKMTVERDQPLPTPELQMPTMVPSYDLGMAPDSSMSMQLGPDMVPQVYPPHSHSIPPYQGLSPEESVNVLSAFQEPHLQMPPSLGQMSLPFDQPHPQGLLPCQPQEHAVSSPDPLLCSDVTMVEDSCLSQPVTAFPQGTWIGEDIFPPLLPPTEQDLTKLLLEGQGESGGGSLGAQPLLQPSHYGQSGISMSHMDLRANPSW
Outline: as §1

[3] = MOLM-16 cells, numeric bound, read-out: DC50 S5 MOLM-16
[4] = MOLM-16 cells, class symbols, read-out: DC50 S5 MOLM-16
[5] = SKNO1 cells, read-out: DC50 S5 SKNO1
[6] = KU-812 cells, read-out: DC50 S5 KU-812

| SMILES | DC50 [1, 3] [nM] | DC50 [1, 4] [nM] | DC50 ([2]; class symbols) [nM] | DC50 [1, 5] [nM] | DC50 [1, 6] [nM] | DC50 ([2]; numeric bound) [nM] |
| --- | --- | --- | --- | --- | --- | --- |
| CC(C)(C)[C@H](NC(=O)c1cc2cc(C(F)(F)P(=O)(O)O)ccc2s1)C(=O)N1CCC[C@H]1C(=O)N1C[C@@H](Oc2ccc3ccccc3c2)C[C@H]1C(=O)NCCCC#Cc1cccc2c1CN(C1CCC(=O)NC1=O)C2=O (stereo partly drawn) [Compound 659, ((2-(((2S)-1-((2S)-2-((2S,4S)-2-((5-(2-(2,6-dioxopiperidin-3-yl)-1-oxoisoindolin-4-yl)pent-4-yn-1-yl)carbamoyl)-4-(naphthalen-2-yloxy)pyrrolidine-1-carbonyl)pyrrolidin-1-yl)-3,3-dimethyl-1-oxobutan-2-yl)carbamoyl)benzo[b]thiophen-5-yl)difluoromethyl)phosphonic acid] | > 300 | – | – | – | – | > 300 |
| CC(C)(C)[C@H](NC(=O)c1cc2cc(C(F)(F)P(=O)(O)O)ccc2s1)C(=O)N1CCC[C@H]1C(=O)N(CCC(=O)NCCC#Cc1cccc2c1CN(C1CCC(=O)NC1=O)C2=O)c1ccc(Br)cc1 (stereo partly drawn) [Compound 614, ((2-(((2S)-1-((2S)-2-((4-bromophenyl)(3-((4-(2-(2,6-dioxopiperidin-3-yl)-1-oxoisoindolin-4-yl)but-3-yn-1-yl)amino)-3-oxopropyl)carbamoyl)pyrrolidin-1-yl)-3,3-dimethyl-1-oxobutan-2-yl)carbamoyl)benzo[b]thiophen-5-yl)difluoromethyl)phosphonic acid] | > 300 | – | > 10000 | > 10000 | > 10000 | – |
| CC(C)(C)[C@H](NC(=O)c1cc2cc(C(F)(F)P(=O)(O)O)ccc2s1)C(=O)N1C[C@H](NC(=O)CCCCCC#Cc2ccc3c(c2)CN(C2CCC(=O)NC2=O)C3=O)C[C@H]1C(=O)Nc1ncc(-c2ccccc2)s1 (stereo partly drawn) [Compound 568, ((2-(((2S)-1-((2S,4R)-4-(8-(2-(2,6-dioxopiperidin-3-yl)-1-oxoisoindolin-5-yl)oct-7-ynamido)-2-((5-phenylthiazol-2-yl)carbamoyl)pyrrolidin-1-yl)-3,3-dimethyl-1-oxobutan-2-yl)carbamoyl)benzo[b]thiophen-5-yl)difluoromethyl)phosphonic acid] | > 300 | – | – | – | – | > 300 |
| Cc1ncsc1-c1ccc([C@H](CC(=O)NCCCCCCCCCC(=O)N[C@@H]2C[C@@H](C(=O)Nc3ncc(-c4ccccc4)s3)N(C(=O)[C@@H](NC(=O)c3cc4cc(C(F)(F)P(=O)(O)O)ccc4s3)C(C)(C)C)C2)NC(=O)[C@@H]2C[C@@H](O)CN2C(=O)[C@@H](NC(=O)C2(F)CC2)C(C)(C)C)cc1 [Compound 579, (difluoro(2-(((S)-1-((2S,4R)-4-(10-((S)-3-((2S,4R)-1-((S)-2-(1-fluorocyclopropane-1-carboxamido)-3,3-dimethylbutanoyl)-4-hydroxypyrrolidine-2-carboxamido)-3-(4-(4-methylthiazol-5-yl)phenyl)propanamido)decanamido)-2-((5-phenylthiazol-2-yl)carbamoyl)pyrrolidin-1-yl)-3,3-dimethyl-1-oxobutan-2-yl)carbamoyl)benzo[b]thiophen-5-yl)methyl)phosphonic acid] | > 300 | – | – | – | – | > 300 |

More lines, main results first:

| DC50 [1, 3] [nM] | DC50 [1, 4] [nM] | DC50 ([2]; class symbols) [nM] | DC50 [1, 5] [nM] | DC50 [1, 6] [nM] | SMILES | DC50 ([2]; numeric bound) [nM] |
| --- | --- | --- | --- | --- | --- | --- |
| – | 100 to 1000 | – | – | – | CN(CCCC#Cc1cccc2c1CN(C1CCC(=O)NC1=O)C2=O)C(=O)CCN(C(=O)[C@@H]1CCCN1C(=O)[C@@H](NC(=O)c1cc2cc(C(F)(F)P(=O)(O)OCOC(=O)C(C)(C)C)ccc2s1)C(C)(C)C)c1ccc2cc(F)ccc2c1 (stereo partly drawn) [Compound 675, ((((2-(((2S)-1-((2S)-2-((3-((5-(2-(2,6-dioxopiperidin-3-yl)-1-oxoisoindolin-4-yl)pent-4-yn-1-yl)(methyl)amino)-3-oxopropyl)(6-fluoronaphthalen-2-yl)carbamoyl)pyrrolidin-1-yl)-3,3-dimethyl-1-oxobutan-2-yl)carbamoyl)benzo[b]thiophen-5-yl)difluoromethyl)(hydroxy)phosphoryl)oxy)methyl pivalate] | > 300 |
| > 300 | – | – | – | – | CC(C)(C)[C@H](NC(=O)c1cc2cc(C(F)(F)P(=O)(O)O)ccc2s1)C(=O)N1CCC[C@H]1C(=O)N1Cc2ccccc2CC1C(=O)NCCCC#Cc1cccc2c1CN(C1CCC(=O)NC1=O)C2=O (stereo partly drawn) [Compound 657, ((2-(((2S)-1-((2S)-2-(3-((5-(2-(2,6-dioxopiperidin-3-yl)-1-oxoisoindolin-4-yl)pent-4-yn-1-yl)carbamoyl)-1,2,3,4-tetrahydroisoquinoline-2-carbonyl)pyrrolidin-1-yl)-3,3-dimethyl-1-oxobutan-2-yl)carbamoyl)benzo[b]thiophen-5-yl)difluoromethyl)phosphonic acid] | > 300 |
| – | > 10000 | < 100 | – | – | CC(C)(C)C(=O)OCOP(=O)(O)C(F)(F)c1ccc2sc(C(=O)N[C@H](C(=O)N3C[C@@H](OCCCCCC#Cc4cccc5c4CN(C4CCC(=O)NC4=O)C5=O)C[C@H]3C(=O)N3CCO[C@H](c4ccccc4)C3)C(C)(C)C)cc2c1 (stereo partly drawn) [Compound 652, ((((2-(((2S)-1-((2S,4S)-4-((7-(2-(2,6-dioxopiperidin-3-yl)-1-oxoisoindolin-4-yl)hept-6-yn-1-yl)oxy)-2-((R)-2-phenylmorpholine-4-carbonyl)pyrrolidin-1-yl)-3,3-dimethyl-1-oxobutan-2-yl)carbamoyl)benzo[b]thiophen-5-yl)difluoromethyl)(hydroxy)phosphoryl)oxy)methyl pivalate] | – |
| > 300 | – | < 100 | – | – | CC(C)(C)C(=O)OCOP(=O)(O)C(F)(F)c1ccc2sc(C(=O)N[C@H](C(=O)N3CCC[C@H]3C(=O)N(CCC(=O)NCCCC#Cc3cccc4c3CN(C3CCC(=O)NC3=O)C4=O)c3ccc(Br)cc3)C(C)(C)C)cc2c1 (stereo partly drawn) [Compound 653, ((((2-(((2S)-1-((2S)-2-((4-bromophenyl)(3-((5-(2-(2,6-dioxopiperidin-3-yl)-1-oxoisoindolin-4-yl)pent-4-yn-1-yl)amino)-3-oxopropyl)carbamoyl)pyrrolidin-1-yl)-3,3-dimethyl-1-oxobutan-2-yl)carbamoyl)benzo[b]thiophen-5-yl)difluoromethyl)(hydroxy)phosphoryl)oxy)methyl pivalate] | – |
| > 300 | – | – | 1000 to 10000 | – | CC(C)(C)[C@H](NC(=O)c1cc2cc(C(F)(F)P(=O)(O)O)ccc2s1)C(=O)N1CCC[C@H]1C(=O)N(CCC(=O)NCCCC#Cc1cccc2c1CN(C1CCC(=O)NC1=O)C2=O)c1cccc2sccc12 (stereo partly drawn) [Compound 660, ((2-(((2S)-1-((2S)-2-(benzo[b]thiophen-4-yl(3-((5-(2-(2,6-dioxopiperidin-3-yl)-1-oxoisoindolin-4-yl)pent-4-yn-1-yl)amino)-3-oxopropyl)carbamoyl)pyrrolidin-1-yl)-3,3-dimethyl-1-oxobutan-2-yl)carbamoyl)benzo[b]thiophen-5-yl)difluoromethyl)phosphonic acid] | > 300 |
| – | < 100 | > 10000 | – | 100 to 1000 | CN(CCCC#Cc1cccc2c1CN(C1CCC(=O)NC1=O)C2=O)C(=O)CCN(C(=O)[C@@H]1CCCN1C(=O)[C@@H](NC(=O)c1cc2cc(C(F)(F)P(=O)(O)OCOC(=O)C(C)(C)C)ccc2s1)C(C)(C)C)c1ccc(-c2nccs2)cc1 (stereo partly drawn) [Compound 679, ((((2-(((2S)-1-((2S)-2-((3-((5-(2-(2,6-dioxopiperidin-3-yl)-1-oxoisoindolin-4-yl)pent-4-yn-1-yl)(methyl)amino)-3-oxopropyl)(4-(thiazol-2-yl)phenyl)carbamoyl)pyrrolidin-1-yl)-3,3-dimethyl-1-oxobutan-2-yl)carbamoyl)benzo[b]thiophen-5-yl)difluoromethyl)(hydroxy)phosphoryl)oxy)methyl pivalate] | – |
